Reference: patent US12502380B2, “MrgprX2 antagonists for the treatment of inflammatory disorders” (Dermira, Inc., priority 2019, dated 2025)

molecular target: T1, Human MrgprX2 (Homo sapiens, UniProt Q96LB1); assay: Human MrgprX2 antagonist FLIPR intracellular calcium mobilization assay; type: cell-based; settings: antagonist activity, recombinant hMrgpMRGPRX2 expressing cells, read-out: Human MrgprX2 Antagonist pIC50 (converted)
T1 construct: expressed in transfected cells
T1 sequence (Q96LB1 1-330): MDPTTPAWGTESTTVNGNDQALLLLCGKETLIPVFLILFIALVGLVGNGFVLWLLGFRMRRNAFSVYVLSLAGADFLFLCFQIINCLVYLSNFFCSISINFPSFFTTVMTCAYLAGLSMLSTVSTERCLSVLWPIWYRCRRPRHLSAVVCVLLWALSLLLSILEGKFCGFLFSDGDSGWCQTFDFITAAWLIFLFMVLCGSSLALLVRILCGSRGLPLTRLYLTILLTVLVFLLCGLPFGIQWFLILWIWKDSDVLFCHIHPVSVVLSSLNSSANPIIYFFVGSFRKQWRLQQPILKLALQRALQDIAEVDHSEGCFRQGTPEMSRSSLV
Text: Potent and selective hMrgpMRGPRX2 compounds have been generated from compounds identified during a high throughput screening (HTS) campaign and followed up with cycles of structure activity based medicinal chemistry efforts. These compounds were characterized in recombinant hMrgpMRGPRX2 expressing cells for their antagonist activity and the potency was confirmed in the human mast cell line LAD-2, where the target is endogenously expressed. The assays used to determine potencies are functional read-out looking at intracellular calcium mobilization using the FLIPR™ technology. In these FLIPR assays, we test the identified compounds using recombinant cellular systems expressing mouse MrgprB2, mouse MrgprA1, gerbil MrgpMRGPRX2 orthologue, Chinese hamster MrgpMRGPRX2 orthologue and cynomolgus monkey MrgpMRGPRX2 orthologue, respectively for orthologue activity.

Structure (SMILES) | IC50 [nM]
O=C(Nc1ncc(Cc2cccc(F)c2)s1)N1CC[C@@H](CO)C1 [Compound E113] | 794
CC(O)CN(C(=O)Nc1ncc(Cc2cccc(F)c2)s1)C1CC1 (centres unmarked) [Compound E114] | 794
CCN(CCO)C(=O)Nc1ncc(Cc2cccc(F)c2)s1 [Compound E115] | 251
C[C@H](O)CN(C)C(=O)Nc1ncc(Cc2cccc(Cl)c2)s1 [Compound E116] | 31.6
CCN(C[C@H](C)O)C(=O)Nc1ncc(Cc2cccc(F)c2)s1 [Compound E117] | 0.631
CCN(C[C@@H](C)O)C(=O)Nc1ncc(Cc2cccc(F)c2)s1 [Compound E118] | 25.1
CC(O)CN(CC(F)(F)F)C(=O)Nc1ncc(Cc2cccc(F)c2)s1 (centres unmarked) [Compound E119] | 200
O=C(Nc1ncc(Cc2cccc(F)c2)s1)N1CCC[C@H]1CO [Compound E120] | 398
O=C(Nc1ncc(Cc2cccc(F)c2)s1)N1CCC[C@@H]1CO [Compound E121] | 39.8
CN(CC1(O)CC1)C(=O)Nc1ncc(Cc2cccc(F)c2)s1 [Compound E122] | 6.31
O=C(Nc1ncc(Cc2cccc(F)c2)s1)N1CCOC[C@H]1CO [Compound E123] | 7940
O=C(Nc1ncc(Cc2cccc(F)c2)s1)N1CCOC[C@@H]1CO [Compound E124] | 794
CC(C)CN(C)C(=O)Nc1ncc(Cc2cccc(F)c2)s1 [Compound E125] | 7.94
O=C(Nc1ncc(Cc2cccc(F)c2)s1)N1CCC1CO (centres unmarked) [Compound E126] | 631
O=C(Nc1ncc(Cc2cccc(F)c2)s1)N1CC(F)(F)C[C@@H]1CO [Compound E127] | 39.8
CC(CO)N(C)C(=O)Nc1ncc(Cc2cccc(F)c2)s1 (centres unmarked) [Compound E128] | 31.6
CCN(C[C@H](C)O)C(=O)Nc1nc2ccccc2s1 [Compound E129] | 1000
C[C@H](O)CN(C)C(=O)Nc1ncc(Cc2ccc(F)cc2)s1 [Compound E130] | 200
NC(=O)[C@@H]1CCCN1C(=O)Nc1ncc(Cc2cccc(F)c2)s1 [Compound E131] | 6310
CN(CCO)C(=O)Nc1ncc(Cc2cccc(F)c2)s1 [Compound E132] | 2510
C[C@@H](O)CN(C)C(=O)Nc1ncc(Cc2cc(F)cc(F)c2)s1 [Compound E133] | 6.31
C[C@H](O)CN(C)C(=O)Nc1ncc(Cc2cc(F)cc(F)c2)s1 [Compound E134] | 1.58

Structure (SMILES) | IC50 [nM]
C[C@H](O)CN(C)C(=O)Nc1ncc(Cc2ccc(F)c(F)c2)s1 [Compound E135] | 15.8
C[C@H](O)CN(C)C(=O)Nc1ncc(Cc2cc(F)ccc2F)s1 [Compound E136] | 3.98
C[C@H](O)CN(C)C(=O)Nc1ncc(Cc2cccc(F)c2F)s1 [Compound E137] | 10
C[C@H](O)CN(C)C(=O)Nc1ncc(CC2CCCC2)s1 [Compound E138] | 2000
CCN(C[C@H](C)O)C(=O)Nc1ncc(Cc2cc(F)ccc2OC)s1 [Compound E139] | 39.8
CCN(C[C@H](C)O)C(=O)Nc1ncc(Cc2cccc(F)c2OC)s1 [Compound E140] | 501
C[C@H](O)CN(C)C(=O)Nc1ncc(Cc2ccc(F)cc2F)s1 [Compound E141] | 50.1
C[C@H](O)CN(C)C(=O)Nc1ncc(Cc2c(F)cccc2F)s1 [Compound E142] | 1580
COc1ccc(F)cc1Cc1cnc(NC(=O)N(C)C[C@H](C)O)s1 [Compound E143] | 398
C[C@H](O)CN(C)C(=O)Nc1ncc(Cc2cccc(C#N)c2)s1 [Compound E144] | 1580
C[C@H](O)CN(C)C(=O)Nc1ncc(Cc2ccc(C#N)cc2)s1 [Compound E145] | 3160
CCN(C[C@H](C)O)C(=O)Nc1ncc(Cc2cc(F)cc(C#N)c2)s1 [Compound E146] | 39.8
CCN(C[C@H](C)O)C(=O)Nc1ncc(Oc2ccc(C#N)cc2)s1 [Compound E147, 3-[5-(4-cyanophenoxy)thiazol-2-yl]-1-ethyl-1-[(2S)-2-hydroxypropyl]urea] | 3.16
C[C@@H](O)CN(C)C(=O)Nc1ncc(Oc2ccccc2)s1 [Compound E148] | 15.8
C[C@H](O)CN(C)C(=O)Nc1ncc(Oc2ccccc2)s1 [Compound E149] | 2
C[C@@H](O)CN(C)C(=O)Nc1ncc(Oc2cccc(F)c2)s1 [Compound E150] | 1.58
C[C@H](O)CN(C)C(=O)Nc1ncc(Oc2ccc(F)cc2)s1 [Compound E151] | 2
C[C@H](O)CN(C)C(=O)Nc1ncc(Oc2cccc(F)c2)s1 [Compound E152] | 1.58
CCN(C[C@H](C)O)C(=O)Nc1ncc(Oc2cccc(Cl)c2)s1 [Compound E153] | 0.794
CCN(C[C@H](C)O)C(=O)Nc1ncc(Oc2ccc(F)cc2)s1 [Compound E154] | 0.631
CCN(C[C@H](C)O)C(=O)Nc1ncc(Oc2ccccc2)s1 [Compound E155] | 0.631
C[C@H](O)CN(C)C(=O)Nc1ncc(Oc2ccc(C#N)cc2)s1 [Compound E156] | 39.8

Structure (SMILES) | IC50 [nM]
CCN(C[C@H](C)O)C(=O)Nc1ncc(Oc2ccc(C)nc2)s1 [Compound E157] | 126
CCN(C[C@H](C)O)C(=O)Nc1ncc(Oc2cncc(F)c2)s1 [Compound E158] | 1.26
C[C@H](O)CN(C)C(=O)Nc1ncc(Oc2cccc(C#N)c2)s1 [Compound E159] | 10
C[C@H](O)CN(C)C(=O)Nc1ncc(Oc2ccc(C(F)(F)F)cc2)s1 [Compound E160] | 2510
CCN(C[C@H](C)O)C(=O)Nc1ncc(Oc2ccc(C(F)(F)F)cc2)s1 [Compound E161] | 316
CCN(C[C@H](C)O)C(=O)Nc1ncc(Oc2cccc(C#N)c2)s1 [Compound E162] | 1.58
CCN(C[C@H](C)O)C(=O)Nc1ncc(Oc2ccc(C#N)c(F)c2)s1 [Compound E163] | 1
C[C@H](O)CN(C)C(=O)Nc1ncc(Oc2ccc(C#N)c(F)c2)s1 [Compound E164] | 3.16
C[C@H](O)CN(C)C(=O)Nc1ncc(Oc2ccc(F)c(C#N)c2)s1 [Compound E165] | 20
CCN(C[C@H](C)O)C(=O)Nc1ncc(Oc2cccnc2)s1 [Compound E166] | 100
C[C@H](O)CN(C)C(=O)Nc1ncc(Oc2cccnc2)s1 [Compound E167] | 3160
C[C@H](O)CN(C)C(=O)Nc1ncc(Oc2ccccc2F)s1 [Compound E168] | 3.98
C[C@H](O)CN(C)C(=O)Nc1ncc(Oc2ccc(F)nc2)s1 [Compound E169] | 251
CCN(C[C@H](C)O)C(=O)Nc1ncc(Oc2ccc(F)nc2)s1 [Compound E170] | 3.98
CCN(C[C@H](C)O)C(=O)Nc1ncc(Oc2ccccc2F)s1 [Compound E171] | 0.794
C[C@H](O)CN(C)C(=O)Nc1ncc(Oc2cncc(C#N)c2)s1 [Compound E172] | 1580
CCN(C[C@H](C)O)C(=O)Nc1ncc(Oc2cncc(C#N)c2)s1 [Compound E173] | 31.6
C[C@H](O)CN(C)C(=O)Nc1ncc(Oc2ccccc2C#N)s1 [Compound E174] | 631
CCN(C[C@H](C)O)C(=O)Nc1ncc(Oc2ccccc2C#N)s1 [Compound E175] | 316
C[C@H](O)CN(C)C(=O)Nc1ncc(Oc2cncc(F)c2)s1 [Compound E176] | 50.1
Cc1cncc(Oc2cnc(NC(=O)N(C)C[C@H](C)O)s2)c1 [Compound E177] | 1580
